Test results as given in US11236102B2, “Oxabicycloheptane prodrugs” (Lixte Biotechnology, Inc., priority 2015, dated 2022).
Entries after “also recorded” stand apart in the source; their conditions may differ.

How the values were obtained:
[1] = Liver S9 stability and metabolite formation; format: in vitro ADME, rat, dog, monkey and human; settings: presence and absence of NADPH, cross species
Procedure: The stability (whole blood, liver S9, SGF, SIF, and PBS buffer) and MDCK-MDR1 monolayer permeability of LB100, LB-100 Carbonate and LB-100 POM were evaluated.
Samples were analyzed by LC-MS/MS using a SCIEX QTrap 5500 mass spectrometer coupled with an Agilent 1290 HPLC Infinity series, a CTC PAL chilled autosampler, all controlled by Analyst software. After separation on a C18 reverse phase HPLC column (Acquity UPLC HSS T3, 1.8, 2.1×50 mm) using an acetonitrile-water gradient system, peaks were analyzed by mass spectrometry (MS) using […] ionization in MRM mode.
Experimental Procedure: Test agent is incubated in duplicate with liver S9 at 37° C. The reaction contains liver S9 protein in 100 mM potassium phosphate, 2 mM NADPH, 3 mM MgCl2, pH 7.4. A control is run for each test agent omitting NADPH to detect NADPH-free degradation. At indicated times, an aliquot is removed from each experimental and control reaction and mixed with an equal volume of ice-cold Stop Solution (methanol, containing internal standard propranolol). Stopped reactions are incubated for 10 minutes at −20° C. Samples are centrifuged to remove precipitated protein, and supernatants are analyzed by LC/MS/MS to quantitate remaining parent and the formation of metabolites. Data are reported as % remaining by dividing by the time zero concentration value.

[2] = Pharmacokinetic study of 157 (iv, po) in SD rats: 157 and endothal in plasma, liver, brain; format: in vivo; set-up: Tmax: dose or concentration left out as unconfirmed; settings: for Endothal plasma concentration: individual rats
Procedure: The blood, liver and brain tissue samples were collected at predetermined times from rats. […] Compound were diluted shortly before use in 4% sodium bicarbonate for sterile injection (this is the standard pediatric solution of NaHCO3 with a pH of about 8.5).
Compound 153 was freshly prepared by diluting the drugs shortly before use in 4% sodium bicarbonate for sterile injection (this is the standard pediatric solution of NaHCO3 with a pH of about 8.5). The final concentrations of 153 solutions were 0.25 mg/mL. The 153 solutions were administered via iv or po route at dose volume of 5 ml/kg according to the latest body weight. Compound 157 was freshly prepared by diluting the drugs shortly before use in 4% sodium bicarbonate for sterile injection (this is the standard pediatric solution of NaHCO3 with a pH of about 8.5). […] The 157 solutions were administered via iv or po route at dose volume of 5 ml/kg according to the latest body weight.
Twelve (12) female SD rats per group were dosed by iv with 153 or 157. The rats were fasted overnight prior to dosing, with free access to water. Foods were withheld for 2 hours post-dose. Blood, liver and brain tissue samples in two animals each group were collected at each time point, within 10% of the scheduled time for each time point. Two extra animals were used for analytic method development.
Blood (>0.3 mL) were collected via aorta abdominalis in anaesthetic animals into tubes containing heparin at 15 min, 1, 2, 6, 10 and 24 hours after iv administration. Liver and brain tissues were collected immediately after animal death. The liver and brain tissues were excised and rinsed with cold saline to avoid blood residual. Upon collection, each sample was placed on ice and the blood samples were subsequently centrifuged (4° C., 11000 rpm, 5 min) to separate plasma.
The obtained plasma, liver and brain tissue samples were stored at −70° C. until LC-MS/MS analysis.
Two (2) female SD rats per group were dosed by po with 153 or 157. The rats were fasted overnight prior to dosing, with free access to water. Foods were withheld for 2 hours post-dose. Blood samples (>0.3 mL) were collected via aorta abdominalis in anaesthetic animals into tubes containing heparin at 30 min, 1, 2, 6, 10 and 24 hours after po administration.
To each sample, 30 μL IS-D (for blank samples, 20 μL acetonitrile:water (1:1) was added) and 300 ul acetonitrile was added. The sample mixture was vortexed for approximately 3 min. After centrifugation at 10000 rpm for 5 min at 4° C., 100 μL of the upper layer was transferred to a new tube and added 200 μL 0.4% formic acid in water (pH6.0). The mixture was vortexed for approximately 3 min before injected onto the LC/MS/MS system for analysis.
On the day of the assay, the frozen liver and brain samples were thawed unassisted at room temperature. An about 200 mg weighed sample of each thawed tissue was placed into a plastic tube with water (0.6 mL) to facilitate homogenization. Tissue processing was conducted using a homogenizer for approximately 1 min, […] homogenate was transferred into a fresh Eppendorf tube. To each tube, 50 μL IS-D was added and mixed. Then 500 ul acetonitrile was added and the sample mixture was vortexed for approximately 3 min. After centrifugation at 10000 rpm for 5 min at 4° C., 100 μL of the upper layer was transferred to a new tube and evaporate the supernatant to dryness at 35° C. Reconstitute the residue with 200 μL of 0.4% formic acid in water (pH 6.0), and vortex for 3 min, submit for LC-MS/MS analysis.
Frozen unknown plasma samples were completely thawed at room temperature and vortexed thoroughly. With a pipette, 50 μL of plasma was transferred into a 2.0 mL Eppendorf tube. 50 μL of 0.1N HCl and 800 μL ethyl acetate were added into each sample. The sample mixture was vortexed for approximately 3 min.

[3] = female, Sprague-Dawley, rat, in vivo, iv, 1.5 mg/kg

| SMILES | metabolites observed in liver S9 stability study [1] | detectability in brain samples ([2]; endothal after single iv 157 at 1.5 mg/kg, 1.5 mg/kg) | Tmax ([2]; female, SD, rat, in vivo, po) | AUC [2, 3] | Cmax [2, 3] | Endothal plasma concentration ([2]; iv administration of 157, 10 hr) | Endothal plasma concentration ([2]; iv administration of 157, 24 hr) | Endothal plasma concentration ([2]; po administration of 157, 10 hr) | AUClast in liver ([2]; rat, in vivo, iv, 1.5 mg/kg) |
| --- | --- | --- | --- | --- | --- | --- | --- | --- | --- |
| COC(=O)C1C2CCC(O2)C1C(=O)N1CCN(C)CC1 (stereo not drawn) [Compound 151] | No metabolites were observed |  |  |  |  |  |  |  |  |
| O=C(O)C1C2CCC(O2)C1C(=O)O (stereo not drawn) [Endothal, 7-oxabicyclo[2.2.1]heptane-2,3-dicarboxylic acid] |  | not detectable; also recorded: undetectable | 2 h | 0.374 µg·h/mL | 3.72 µg/mL | BLQ | BLQ | BLQ | 15025 ng·h/g |
